These results are taken from a melting point compilation (Tetko et al.; mined from patent text by program, amines drawn as free bases though some values may be those of a salt).

The structures appear in SMILES notation.

In general, melting point refers to the temperature of the solid-liquid transition. The compound `COc1c(C)cc(C(=O)c2cc(-c3ccc(NC(C)=O)cc3)c(N3CCOCC3)s2)nc1C` gave a melting point of 145 °C.
In the case of `COc1cc(C=CC(=O)c2ccccc2N(C)C)cc(OC)c1` it was 160 °C; in that of `N#Cc1ccc(-c2cc(-c3cc(C#N)ccc3Cl)on2)cc1`, 207 to 209 °C.
In turn, `CCOC(=O)c1cnc2c(-c3ccc(Cc4cccc(OC)c4)cc3)cnn2c1O` had a melting point of 236 to 240 °C.
In turn, `CCOC(=O)N1CCN(C(c2ccccc2)c2ccccc2)CC1(C)Cc1ccc2c(c1)OCCO2` (stereo unspecified) gave a melting point of 153 to 155 °C.
In the case of `Oc1cc(Cl)c2nc(-c3ccc(O)c(F)c3)cc(Br)c2c1` it was 184 to 186 °C.
In the case of `CC(=O)N1CCC(Oc2c(F)c(F)c(F)c(F)c2F)CC1` it was 60 to 65 °C; in that of `COc1cccc(CNC(=O)c2[nH]c3ccc(Cl)cc3c2S(=O)(=O)c2ccccc2)c1`, 203 to 204 °C; in that of `CC(c1ccc(F)cc1)n1ncc(-c2ccc(S(C)(=O)=O)cc2)c(-c2ccc(F)cc2)c1=O` (stereo unspecified), 162 to 164 °C.
`CS(=O)(=O)c1ccc(-c2c(F)c3cccccc-3c2-c2ccccc2)cc1` displayed a melting point of 120 to 122 °C.
In the case of `COc1nn(-c2ccc(C=O)c(Cl)c2)nc1Cl` it was 85 to 87 °C.
The compound `O=C1[C@H](CC[C@H](O)c2ccc(F)cc2)[C@@H](c2ccc(OS(=O)(=O)C(F)(F)F)cc2)N1c1ccc(F)cc1` showed a melting point of 122 °C.
In the case of `CCOC(=O)CN(CC(=O)OCC)[C@H]1CC[C@H](Nc2ncc3ncnc(Nc4ccc(F)c(Cl)c4)c3n2)CC1` it was 155 to 157 °C.
The value for `COC(=O)c1ccccc1Nc1c(OC)ccc2ccccc12` was 144 to 146 °C.
Regarding `COC(=O)CCS(=O)(=O)c1ccc(C=C(C)c2ccc3c(c2)C(C)(C)CCC3(C)C)cc1`, the melting point fell in the range of 118 to 120 °C.
In the case of `CCOC(=O)CCc1c(-c2cc(Cl)ccc2OC)c2cc(C(F)(F)F)ccc2[nH]c1=O` it was 193 to 195 °C; in that of `COc1cc(-c2ccc(N3CCCN(c4ccc(-c5cc(OC)c(O)c(OC)c5)cn4)CC3)nc2)cc(OC)c1O`, 200 to 202 °C; in that of `COc1cc(-n2c(=O)cc(C(F)(F)F)n(C)c2=O)c(F)cc1Cl`, 128 to 130 °C.
In the case of `CC(C)(C)N(C(=O)COc1nnc(C(F)(F)F)s1)c1ccc(Cl)cc1` it was 82 °C; in that of `Cn1ncnc1COc1nc2c(cc1-c1ccoc1)nnn2-c1c(F)cccc1F`, 166 to 169 °C.
In the case of `Cc1c(N2C[C@@H](NC(=O)C(F)(F)F)C3(CC3)C2)c(F)c(N)c2c(=O)c(C(=O)O)cn(C3CC3)c12` it was 246 to 248 °C; in that of `CCC(CO)c1ccc(N=C2SCCS2)cc1` (stereo unspecified), 98.5 to 100 °C; in that of `CC(C)OC(=O)Cn1c(=O)n(C)c(=O)n(-c2cc(-n3c(=O)n4n(c3=S)CCCC4)c(F)cc2Cl)c1=O`, 136 to 142 °C.
As to `COc1nc2nc(S(=O)(=O)Cl)nn2cc1C`, the melting point is 154 to 157 °C.
In the case of `CCOCCn1c(N2CCCN(CCC3(c4ccncc4)CCN(C(=O)c4cc(OC)c(OC)c(OC)c4)C3)CC2)nc2ccccc21` (stereo unspecified) it was 85 to 95 °C; in that of `CCCCCCCCCCCCN=C1SC(=CC(=O)O)C(=O)N1CCCCCCCCCCCC`, 71 to 72 °C; in that of `CCCCCCC(CCC(=O)OC)n1cnc(NC(=O)c2ccccc2C(=O)O)c1` (stereo unspecified), 135 to 136 °C.
The value for `CCCCCCCCOC(=O)c1cc(=O)c2c3c(ccc2o1)-c1ccc(Cl)cc1C(C)(C)O3` was 111 to 113 °C; that for `CC(C)N(CCNC(=O)N1CCCC(S(=O)(=O)c2ccccc2)C1)C(C)C` (stereo unspecified) was 82.5 to 84 °C; that for `Cc1[nH]c(=S)n(Nc2ccc(Cl)cc2)c1-c1ccccc1` was 212 to 214 °C.
The value for `CN1C(=O)c2ccccc2N=C(N)C1c1ccccc1` (stereo unspecified) was 282 to 286 °C.
The compound `Cc1cc(C2(c3ccc(Cl)cc3)OCCS2)ccc1NC(=O)c1cccc(I)c1C(=O)NC(C)C` (stereo unspecified) registered a melting point of 214 to 217 °C.
Take `COc1cc([N+](=O)[O-])c(C(OC(=O)C(Cl)(Cl)Cl)c2ccccc2)c([N+](=O)[O-])c1OC` (stereo unspecified): the melting point lay within 105 to 106 °C.
In the case of `O=S(=O)(F)c1ccccc1S(=O)(=O)N1CCC1` it was 93 °C; in that of `O=C1CCC(N2C(=O)c3cccc(CNC(=O)c4ccc(Cl)c(Cl)c4)c3C2=O)C(=O)N1` (stereo unspecified), 161 to 163 °C.
The value for `OC1(C#Cc2ccccc2Cc2ccccc2)CN2CCC1CC2` (stereo unspecified) was 156 to 157 °C; that for `CC(C)Cc1nn(C)c(=O)c2cc(Cc3cccnc3)sc12` was 118 to 119 °C; that for `CCOc1ncc(S(=O)(=O)N2CCN(CC)CC2)cc1C(=O)Nc1c(C(N)=O)nn(CCOC)c1CC` was 156 °C.
In the case of `O=C(Nc1nc2cc(O)ccc2[nH]1)NC1CC1` it was 320 °C; in that of `Cc1ncc(C#N)c(Nc2ccc3[nH]ccc3c2C)c1-c1ccc(OCCN2CCN(C)CC2)cc1`, 183 to 184 °C.
Take `Cc1cc(-c2cnn(-c3ccccc3)c2)ccc1OC=C1C=CC=CC1n1nnn(C)c1=O` (stereo unspecified): the melting point is 152 to 153 °C.
In the case of `COC(=O)CCC(=O)c1cc(NC(C)=O)ccc1OCC1CO1` (stereo unspecified) it was 84 to 87 °C; in that of `Nc1nc(Cl)cc(C#Cc2ccc3c(C(=O)Nc4cccc(C(F)(F)F)c4)cccc3c2)n1`, 171 to 175 °C; in that of `OC1CCc2c(I)cccc21` (stereo unspecified), 83 to 84 °C.
The value for `COc1cc(C=C2NC(=O)N(C)C2=O)ccc1O` was 227 to 228 °C; that for `COc1ccc(CN(C)CCCCc2ccc(NC(=O)c3cccc4c(=O)c5cccc(OC)c5[nH]c34)cc2)cc1OC` was 157 °C; that for `c1csc(C2=NOCCS2)c1` was 86 to 89 °C.
The value for `COc1cc(Cc2cnc(N)nc2N)cc(OC)c1N` was 209 to 210 °C; that for `Cn1cc2c(CO)c(Br)ccc2n1` was 123 to 125 °C.
Consider `COc1c(C)c(C(O)(c2cccnc2)C(C)C)c(OC)c2ccccc12` (stereo unspecified), for which the melting point fell in the range of 130 to 131 °C.
Turning to `COc1ccccc1NC(=O)Nc1nc(Nc2ccccc2-c2ccccc2)nc(N(CCC(=O)O)CCc2ccccn2)n1`, the melting point lay within 225 to 227 °C.
Compound `CCOC(=O)N1CCNC1=Nc1ccc(Cl)cc1Cl` gave a melting point of 138 to 139 °C.
In the case of `Nc1nc2ccc(CO)cc2o1` it was 148 to 150 °C; in that of `N#CCc1coc2ccc(Br)cc12`, 120 °C.
In the case of `CC(C)NC(=O)c1cccc(-c2ccnc3c(C(=O)c4cccs4)cnn23)c1` it was 218 to 220 °C.
In the case of `Cc1cnc2c(C#N)cnn2c1-c1ccc(Cl)cc1` it was 154 to 157 °C; in that of `CC(C)Oc1ccc(OCc2ccccc2)cc1-c1nc2cc(CNCC(=O)O)cnc2[nH]1`, 182 to 184 °C.
The compound `Nc1ccc2ncnc(Nc3cccc(C(F)(F)F)c3)c2c1` came in with a melting point of 190 to 192 °C.
Turning to `CN1Cc2nc[nH]c2C[C@@H]1C(=O)c1ccccc1`, the melting point is 98 °C.
In the case of `O=[N+]([O-])c1ccccc1/C=C/c1ncon1` it was 128 °C; in that of `O=C(CCC(=O)c1ccc(CCNS(=O)(=O)c2ccccc2)cc1)Nc1nnn[nH]1`, 241 to 242 °C; in that of `Cc1oncc1C(=O)Nc1ccc(-n2nc(C3CC3)cc2C2CC2)cc1`, 153 to 158 °C.
`O=C(C=Cc1ccccc1)c1cccc(NC(=O)c2ccn3c2CSC3c2cccnc2)c1` (stereo unspecified) returned a melting point of 190 °C.
In the case of `COC(=O)c1cccc(-c2c(C)[nH]c(=S)n2Nc2cccc(C)c2)c1` it was 164 to 166 °C.
In the case of `CS(=O)(=O)OCCCCCCNc1ccc2nncn2n1` it was 103 to 105 °C.
Take `COc1ccc(-c2ccc(COCCc3cccc(NS(=O)(=O)C(F)(F)F)c3)cc2)cc1`: the melting point is 96 to 98 °C.
In the case of `N=C(NNC(=O)c1ccccc1O)C(Cl)(Cl)Cl` it was 168 to 169 °C; in that of `CCCNC(=O)n1nc(Oc2ncc(C(F)(F)F)cc2Cl)c(Cl)c1C`, 54 to 56 °C.
In the case of `COC1(C)CC(NC(=O)C(F)(F)F)C(O)(NC(=O)C(F)(F)F)C(C)O1` (stereo unspecified) it was 165 to 166 °C; in that of `CCOC(=O)C(=CNc1nnc(C)s1)C(=O)c1cc(F)c(Cl)nc1Cl`, 142 to 152 °C; in that of `O=C(O)c1ccc(CCCC2SCC(=O)N2CCC2(O)CCCCCC2)cc1` (stereo unspecified), 146 to 148 °C.
The value for `CCCCOc1ccc(S(=O)(=O)C2(C(=O)OCC)CCN(Cc3ccc(Cl)c(Cl)c3)CC2)cc1` was 86 °C; that for `OC1CCc2c(-c3ccccc3)cccc21` (stereo unspecified) was 80.5 to 81.5 °C; that for `CCC(CC)c1nn(-c2ccc(C(F)(F)F)cn2)cc1CCCOc1c(CC(=O)O)ccnc1C` was 78 to 79 °C.
`O=[N+]([O-])c1ccccc1Sc1ncc[nH]1` registered a melting point of 137 to 138 °C.
In the case of `CCOC(=O)CN1C(=O)COc2cc(F)ccc21` it was 90 to 91.5 °C; in that of `BrCCCCCCCCCCCCCCCCCCCCBr`, 62 °C.
The value for `NCCOc1cc(-c2ccccn2)nc(-c2ccccn2)c1` was 134 to 137 °C; that for `Cn1nc(O[C@@H]2c3cc([N+](=O)[O-])ccc3OC(CF)(CF)[C@H]2O)ccc1=O` (relative stereo) was 226 to 228 °C.
The value for `CCCCCS(=O)(=O)NC(=O)c1ccc2[nH]cc(Cc3ccc(Cl)cc3Cl)c2c1` was 157 to 158 °C; that for `Nc1ccc(N2CCOCC2)c(C(=O)O)c1` was 307 to 308 °C.
`COC(=O)c1ccc(Cc2cccc3ccc(C(=O)O)cc23)c(OC)c1` came in with a melting point of 229 to 230 °C.
In the case of `Cc1cc(Cl)ccc1-n1cnnc1C(F)(F)F` it was 90 °C.
Compound `O=C(Nc1ccccc1)C1=C(O)c2cccc(-c3ccccc3)c2OS1` yielded a melting point of 175 °C.
In the case of `COCCOc1cc(Oc2ccccc2)cnc1Nc1nccs1` it was 141 °C; in that of `O=C(O)c1cc2ccc(OCc3ccccc3)cc2oc1=O`, 196 to 197 °C.
